Assay results from PubChem BioAssay (NCI).
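48-hour exposure; five concentrations; linearly interpolated endpoints. TGI denotes the concentration required for complete inhibition of growth.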

Columns and labels:
Test in all cases: NCI-60 cell line screen, 48 h
IGROV1 ovarian = system: IGROV1 ovarian
HCT-15 colon = system: HCT-15 colon
HT29 colon = system: HT29 colon
OVCAR-3 ovarian = system: OVCAR-3 ovarian
CCRF-CEM leukemia = system: CCRF-CEM leukemia
HS 578T breast = system: HS 578T breast
HOP-62 NSCLC = system: HOP-62 NSCLC
RXF 393 renal = system: RXF 393 renal
HCC-2998 colon = system: HCC-2998 colon
MDA-MB-231 breast = system: MDA-MB-231 breast

SMILES | TGI (IGROV1 ovarian) | TGI (HCT-15 colon) | TGI (HT29 colon) | TGI (OVCAR-3 ovarian) | TGI (CCRF-CEM leukemia) | TGI (HS 578T breast) | TGI (HOP-62 NSCLC) | TGI (RXF 393 renal) | TGI (HCC-2998 colon) | TGI (MDA-MB-231 breast)
CCOC(=O)CCC(C(=O)OCC)n1nnc2ccc(Nc3c(C)[n+]([O-])c4cc(F)c(OCC)cc4[n+]3[O-])cc21 (configuration not stated) | > 100 µM | > 100 µM | > 100 µM | 67.4 µM | > 100 µM | > 100 µM | > 100 µM | > 100 µM |  | 
O=C1[C@H](O)[C@@H]2CCC[C@@]23CCCN13 | > 100 µM | > 100 µM | > 100 µM | > 100 µM | > 100 µM | > 100 µM | > 100 µM | > 100 µM | > 100 µM | 
O=C(CBr)NCCc1c[nH]c2ccccc12 | 4.22 µM | 4.36 µM | 3.51 µM | 4.09 µM | 0.552 µM | 42.2 µM |  | 2.41 µM | 24.9 µM | 4.49 µM
C=C(C)[C@@H]1CCC2=C(CC[C@]3(C)[C@@H]([C@@H](CCC=C(C)C)C(=O)O)[C@H](O)C[C@@]23C)[C@@]1(C)CCC(=O)O | > 100 µM | > 100 µM | > 100 µM | > 100 µM | > 100 µM | > 100 µM | > 100 µM | > 100 µM |  | > 100 µM
CC(C)(CO)NC(=O)c1cccs1 | > 100 µM | > 100 µM | > 100 µM | > 100 µM | > 100 µM |  | > 100 µM |  | > 100 µM | > 100 µM
Brc1ccc(C[N+]23CN4CN(CN(C4)C2)C3)cc1 | > 100 µM | 69 µM |  | > 100 µM | 62.9 µM |  | > 100 µM | 34.6 µM | > 100 µM | 
Cc1cc(N)c2cc(NC(=O)Nc3ccc4nc(C)cc(N)c4c3)ccc2n1 | > 100 µM | > 100 µM | > 100 µM | > 100 µM | > 100 µM | > 100 µM | > 100 µM |  | > 100 µM | > 100 µM
CCOC(=O)C1=C(O)c2ccc(OC)cc2C(=O)C1=O | > 100 µM | > 100 µM | > 100 µM | > 100 µM | > 100 µM |  | > 100 µM | > 100 µM | > 100 µM | 
COc1cc(C(=O)N(C(=O)N2CCCCC2)c2ccccc2)cc(OC)c1OC | > 100 µM | > 100 µM |  | > 100 µM | > 100 µM |  | > 100 µM |  | > 100 µM | > 100 µM
COc1ccccc1[C@@H]1CCC2CC[C@@H](c3ccccc3OC)[N+]21Cc1ccccc1 (some centres not stated) | 5.7 µM | 15.2 µM | 10.1 µM | 10.7 µM | 20.3 µM | 35.8 µM | 13.3 µM | 8.53 µM |  | 9.83 µM
O=C(c1cccnc1)N1N=C(c2ccc3c(c2)OCO3)CC1(O)c1cc(F)c(Cl)cc1Cl (configuration not stated) | 34.1 µM | 42.5 µM | 35.9 µM | 26.3 µM | 75.4 µM | > 100 µM | 48.7 µM | 26.1 µM |  | 40.5 µM
CC(=O)Nc1ccc(C(=O)n2[nH]c(C)c(/C=C3\C(=O)C=Cc4ccccc43)c2=O)cc1 |  | > 100 µM | > 100 µM | > 100 µM | > 100 µM |  | > 100 µM |  | > 100 µM | 
CN(C)CCCN=c1c2ccccc2n(C)c2[nH]c(=O)n(C)c(=O)c12 | > 100 µM | > 100 µM | 39.2 µM |  | 16.8 µM | 52.6 µM | 29.9 µM | 30.1 µM |  | 28 µM
O=C1NC(Cc2ccccc2)C(=O)N2CCCC12 (configuration not stated) | > 100 µM | > 100 µM | > 100 µM | > 100 µM | > 100 µM |  | > 100 µM | > 100 µM | > 100 µM | 
N/C(=N/N=C/c1cccc(F)c1)NO | > 100 µM | > 100 µM | > 100 µM | > 100 µM | > 100 µM |  | 82.1 µM | 78.4 µM | > 100 µM | 
COC(=O)C1=C(C)NC2=C(C(=O)c3ccccc32)C1c1cn[nH]c1-c1ccccc1 (configuration not stated) | > 100 µM | > 100 µM | > 100 µM | > 100 µM | > 100 µM | > 100 µM | > 100 µM | > 100 µM |  | > 100 µM
Cc1ccc(Cc2n[nH]c(=O)n2N2C(=O)c3ccccc3C2=O)cc1 | > 100 µM | > 100 µM | > 100 µM | > 100 µM | > 100 µM | > 100 µM | > 100 µM |  | > 100 µM | > 100 µM
COc1ccc(OC)c(-c2cc(=O)c3cc4c(cc3[nH]2)OCO4)c1 | > 100 µM | > 55.5 µM | > 100 µM | > 55.2 µM | > 100 µM |  | 67.7 µM | 16.5 µM | 17.6 µM | 
COC(=O)CC1NC(=O)C1C(C)(OC)OC (configuration not stated) | > 100 µM | > 100 µM | > 100 µM | > 100 µM | > 100 µM |  | > 100 µM | > 100 µM | > 100 µM | 
COc1cccc(/C=N/NC(=O)CN(C)C)c1O | > 100 µM | > 100 µM | > 100 µM | > 100 µM | > 100 µM | > 100 µM | > 100 µM | > 100 µM | > 100 µM | 
C[C@]12CCC(=O)C=C1CC[C@@H]1C2CC[C@@]2(C)C1CC[C@@H]2OC(=O)C12OC1CCC2=O (some centres not stated) | 23.6 µM | 30.7 µM | 33.4 µM | 32.9 µM | 32.6 µM |  | 70 µM | 16.8 µM | 59 µM | 
COc1ccc(C=NCCCN=Cc2ccc(OC)cc2O)c(O)c1 | > 100 µM | > 100 µM | > 100 µM | 51.2 µM | > 100 µM | 63.7 µM | > 100 µM | > 100 µM |  | > 100 µM
CCCCc1c2c(nc3c1CCCC3=O)CCCC2 | > 100 µM | > 100 µM | > 100 µM | > 100 µM | > 100 µM |  | > 100 µM |  | > 100 µM | 
COC(=O)CN(CC1O[C@@H]2OC(C)(C)O[C@@H]2C1NC(C)=O)C(=O)OCc1ccccc1 (some centres not stated) | > 100 µM | > 100 µM | > 100 µM | > 100 µM |  | > 100 µM | > 100 µM |  | > 100 µM | > 100 µM
